{
  "source": "PubChem BioAssay AID2060897",
  "about": "(Molecular Pharmacology Branch, DTP, NCI, 2025)",
  "test_system": "966289-007-R4-J1-PDC complex spheroid viability",
  "assay": "Anticancer human tumor 966289-007-R4-J1-PDC patient-derived pancreatic adenocarcinoma cell line growth inhibition [RAS]",
  "details": "for viability, T/C: stronger effect = lower value",
  "outline": "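Multi-cell-type spheroids: tumor cells plus HUVEC endothelial cells and mesenchymal stem cells. RAS-pathway inhibitors were combined with targeted agents, each dosed in half-log steps down from clinical Cmax, or from 10 microM when Cmax was unknown.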",
  "note": "Several values for one entry are separate records, joined by “and”; a condition that tells them apart may be missing. Equal entries are not always repeated.",
  "data": [
    {"compound": "C[C@@H](NC(=O)c1ncnc(N)c1Cl)c1ncc(C(=O)Nc2cc(C(F)(F)F)c(Cl)cn2)s1", "note": "+ CCn1c(-c2cc(N3CCN(C)CC3)cnc2C(C)OC)c2c3cc(ccc31)-c1csc(n1)CC(NC(=O)C1CC1C)C(=O)N1CCCC(N1)C(=O)OCC(C)(C)C2;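 note: spheroids exposed to agents for one week before readout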;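 for viability, T/C: percent viability relative to DMSO vehicle control wells as 100%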", "values": [
      {"measurement": "IC50", "setting": "curve of first compound, second compound 0.000949 µM", "result": "> 10", "unit": "µM"},
      {"measurement": "IC50", "setting": "curve of first compound, second compound 0.003 µM", "result": "> 10", "unit": "µM"},
      {"measurement": "IC50", "setting": "curve of first compound, second compound 0.00949 µM", "result": "> 10", "unit": "µM"},
      {"measurement": "IC50", "setting": "curve of first compound, second compound 0.03 µM", "result": "> 10", "unit": "µM"},
      {"measurement": "IC50", "setting": "curve of first compound, second compound 0.0949 µM", "result": "> 10", "unit": "µM"},
      {"measurement": "IC50", "setting": "curve of first compound, second compound 0.3 µM", "result": "> 10", "unit": "µM"},
      {"measurement": "viability, T/C", "setting": "second compound 0.000949 µM, first compound 0.0316 µM", "result": 125, "unit": "%"},
      {"measurement": "viability, T/C", "setting": "second compound 0.000949 µM, first compound 0.1 µM", "result": 120, "unit": "%"},
      {"measurement": "viability, T/C", "setting": "second compound 0.000949 µM, first compound 0.316 µM", "result": 91.1, "unit": "%"},
      {"measurement": "viability, T/C", "setting": "second compound 0.000949 µM, first compound 1 µM", "result": 73, "unit": "%"},
      {"measurement": "viability, T/C", "setting": "second compound 0.000949 µM, first compound 3.16 µM", "result": 73.8, "unit": "%"},
      {"measurement": "viability, T/C", "setting": "second compound 0.000949 µM, first compound 10 µM", "result": 103, "unit": "%"},
      {"measurement": "viability, T/C", "setting": "second compound 0.003 µM, first compound 0.0316 µM", "result": 94.6, "unit": "%"},
      {"measurement": "viability, T/C", "setting": "second compound 0.003 µM, first compound 0.1 µM", "result": 113, "unit": "%"},
      {"measurement": "viability, T/C", "setting": "second compound 0.003 µM, first compound 0.316 µM", "result": 102, "unit": "%"},
      {"measurement": "viability, T/C", "setting": "second compound 0.003 µM, first compound 1 µM", "result": 85.1, "unit": "%"},
      {"measurement": "viability, T/C", "setting": "second compound 0.003 µM, first compound 3.16 µM", "result": 97, "unit": "%"},
      {"measurement": "viability, T/C", "setting": "second compound 0.003 µM, first compound 10 µM", "result": 84.2, "unit": "%"},
      {"measurement": "viability, T/C", "setting": "second compound 0.00949 µM, first compound 0.0316 µM", "result": 97.3, "unit": "%"},
      {"measurement": "viability, T/C", "setting": "second compound 0.00949 µM, first compound 0.1 µM", "result": 116, "unit": "%"},
      {"measurement": "viability, T/C", "setting": "second compound 0.00949 µM, first compound 0.316 µM", "result": 95.3, "unit": "%"},
      {"measurement": "viability, T/C", "setting": "second compound 0.00949 µM, first compound 1 µM", "result": 69, "unit": "%"},
      {"measurement": "viability, T/C", "setting": "second compound 0.00949 µM, first compound 3.16 µM", "result": 103, "unit": "%"},
      {"measurement": "viability, T/C", "setting": "second compound 0.00949 µM, first compound 10 µM", "result": 110, "unit": "%"},
      {"measurement": "viability, T/C", "setting": "second compound 0.03 µM, first compound 0.0316 µM", "result": 79.2, "unit": "%"},
      {"measurement": "viability, T/C", "setting": "second compound 0.03 µM, first compound 0.1 µM", "result": 77.2, "unit": "%"},
      {"measurement": "viability, T/C", "setting": "second compound 0.03 µM, first compound 0.316 µM", "result": 118, "unit": "%"},
      {"measurement": "viability, T/C", "setting": "second compound 0.03 µM, first compound 1 µM", "result": 123, "unit": "%"},
      {"measurement": "viability, T/C", "setting": "second compound 0.03 µM, first compound 3.16 µM", "result": 117, "unit": "%"},
      {"measurement": "viability, T/C", "setting": "second compound 0.03 µM, first compound 10 µM", "result": 82, "unit": "%"},
      {"measurement": "viability, T/C", "setting": "second compound 0.0949 µM, first compound 0.0316 µM", "result": 76.6, "unit": "%"},
      {"measurement": "viability, T/C", "setting": "second compound 0.0949 µM, first compound 0.1 µM", "result": 88.3, "unit": "%"},
      {"measurement": "viability, T/C", "setting": "second compound 0.0949 µM, first compound 0.316 µM", "result": 119, "unit": "%"},
      {"measurement": "viability, T/C", "setting": "second compound 0.0949 µM, first compound 1 µM", "result": 105, "unit": "%"},
      {"measurement": "viability, T/C", "setting": "second compound 0.0949 µM, first compound 3.16 µM", "result": 111, "unit": "%"},
      {"measurement": "viability, T/C", "setting": "second compound 0.0949 µM, first compound 10 µM", "result": 150, "unit": "%"},
      {"measurement": "viability, T/C", "setting": "second compound 0.3 µM, first compound 0.0316 µM", "result": 60.5, "unit": "%"},
      {"measurement": "viability, T/C", "setting": "second compound 0.3 µM, first compound 0.1 µM", "result": 101, "unit": "%"},
      {"measurement": "viability, T/C", "setting": "second compound 0.3 µM, first compound 0.316 µM", "result": 130, "unit": "%"},
      {"measurement": "viability, T/C", "setting": "second compound 0.3 µM, first compound 1 µM", "result": 141, "unit": "%"},
      {"measurement": "viability, T/C", "setting": "second compound 0.3 µM, first compound 3.16 µM", "result": 116, "unit": "%"},
      {"measurement": "viability, T/C", "setting": "second compound 0.3 µM, first compound 10 µM", "result": 107, "unit": "%"}
    ]},
    {"compound": "CC(Nc1ccc2c(c1)OCCn1cc(N3C(=O)OCC3C(F)F)nc1-2)C(N)=O", "note": "(stereo not given)", "values": [
      {"measurement": "viability, T/C", "setting": "compound 0.316 µM", "result": "101% (2×) and 121% and 106%"},
      {"measurement": "viability, T/C", "setting": "compound 10 µM", "result": "87.9% [middle of 4 runs]"},
      {"measurement": "IC50", "setting": "curve of compound", "result": "> 10", "unit": "µM"}
    ]}
  ]
}
